Measured values reported in patent publication US9029389B2 (Institut Pasteur Korea, priority 2011, dated 2015).

Target: T1, Human 5-lipoxygenase (Homo sapiens, UniProt P09917)
T1 construct: purchased Cayman 60402; host or cells: insect cells
T1 sequence (P09917 1-674): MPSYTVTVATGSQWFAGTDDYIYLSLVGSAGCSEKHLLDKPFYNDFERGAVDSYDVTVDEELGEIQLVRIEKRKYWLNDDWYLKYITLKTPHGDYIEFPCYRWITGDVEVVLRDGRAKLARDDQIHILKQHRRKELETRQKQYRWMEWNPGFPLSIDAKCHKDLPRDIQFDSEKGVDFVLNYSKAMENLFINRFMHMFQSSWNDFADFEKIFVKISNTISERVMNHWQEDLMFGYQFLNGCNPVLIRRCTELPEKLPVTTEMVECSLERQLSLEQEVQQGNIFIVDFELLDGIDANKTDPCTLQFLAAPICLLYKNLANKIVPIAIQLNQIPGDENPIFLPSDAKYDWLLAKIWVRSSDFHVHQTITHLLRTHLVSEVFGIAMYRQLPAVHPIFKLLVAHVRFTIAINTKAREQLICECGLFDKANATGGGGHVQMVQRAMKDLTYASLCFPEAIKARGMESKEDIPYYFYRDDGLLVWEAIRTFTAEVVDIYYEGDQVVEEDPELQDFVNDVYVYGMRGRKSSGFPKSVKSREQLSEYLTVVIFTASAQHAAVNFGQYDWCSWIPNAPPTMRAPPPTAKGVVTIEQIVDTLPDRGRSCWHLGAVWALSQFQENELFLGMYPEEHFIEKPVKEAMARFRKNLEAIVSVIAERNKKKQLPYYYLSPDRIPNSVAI
Assay: Activity of compounds against 5-LO enzyme (LTB4 measurement and/or fluorescence method)
Format: biochemical
Details: for inhibition at 10 µM: 5-LO, single concentration of 10 uM in duplicate; for IC50: 6 or 11 point dose response in duplicate
How it was run: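 Two read-outs: LTB4 measured by EIA and/or LC/MS/MS with LTB4-d4 standard after 15 min RT compound preincubation with insect-cell 5-LO and a 5 min 37 °C reaction on 3 uM arachidonic acid (0.1 mM ATP, pH 7.4). The room-temperature fluorescence format used 20 uM H2DCFDA, 100 uM ATP, 3 uM arachidonic acid, 5 min; IC50 from 6/11-point curves.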

SMILES | inhibition at 10 µM [%] | IC50 [nM]
Cc1nc2ccccn2c1C(=O)NCC1CCN(C(=O)OC(C)(C)C)CC1 [compound 10, tert-Butyl 4-((2-methylimidazo[1,2-a]pyridine-3-carboxamido)methyl)piperidine-1-carboxylate] | < 40 | 
CCOC(=O)c1c(C)nc2ccccn12 [compound 1, Ethyl 2-methylimidazo[1,2-a]pyridine-3-carboxylate] | < 40 | 
CCc1nc2ccc(Cl)cn2c1C(=O)NCc1ccc(N2CCC(OCc3ccccc3)CC2)cc1 [compound 317, N-(4-(4-(benzyloxy)piperidin-1-yl)benzyl)-6-chloro-2-ethylimidazo[1,2-a]pyridine-3-carboxamide] | < 40 | 
Cc1nc2ccc(Cl)cn2c1C(=O)NCc1ccccc1 [compound 17, N-Benzyl-6-chloro-2-methylimidazo[1,2-a]pyridine-3-carboxamide] | < 40 | 
CCc1nc2ccc(C)cn2c1C(=O)NCc1ccc(OC(F)(F)F)cc1 [compound 59, 2-Ethyl-6-methyl-N-(4-(trifluoromethoxy)benzyl)imidazo[1,2-a]pyridine-3-carboxamide] | 40 to 69 | 
CCc1nc2ccc(Cl)cn2c1CNCc1ccc(F)cc1 [compound 338, 1-(6-chloro-2-ethylimidazo[1,2-a]pyridin-3-yl)-N-(4-fluorobenzyl)methanamine] | < 40 | 
Cc1nc2c(C#N)cccn2c1C(=O)NCc1ccccc1 [compound 47, N-Benzyl-8-cyano-2-methylimidazo[1,2-a]pyridine-3-carboxamide] | < 40 | 
CCc1nc2cc(Cl)ccn2c1C(=O)N1CCC(Oc2ccc(OC(F)(F)F)cc2)CC1 [compound 380, (7-Chloro-2-ethylimidazo[1,2-a]pyridin-3-yl)(4-(4-(trifluoromethoxy)phenoxy)piperidin-1-yl)methanone] |  | < 1000
O=C(NCc1ccccc1)c1c(C2CC2)nc2ccccn12 [compound 38, N-Benzyl-2-cyclopropylimidazo[1,2-a]pyridine-3-carboxamide] | < 40 | 
CCc1nc2ccc(Cl)cn2c1C(=O)NCc1ccc(Oc2ccccc2)cc1 [compound 62] | < 40 | 
CCc1nc2c(OC)cccn2c1C(=O)NCc1ccc(N2CCN(c3ccc(F)cc3)CC2)cc1 [compound 263, 2-Ethyl-N-(4-(4-(4-fluorophenyl)piperazin-1-yl)benzyl)-8-methoxyimidazo[1,2-a]pyridine-3-carboxamide] | 40 to 69 | 
Cc1nc2ccccn2c1C(=O)Nc1ccc(OCc2ccccc2)cc1 [compound 14, N-(4-(Benzyloxy)phenyl)-2-methylimidazo[1,2-a]pyridine-3-carboxamide] | < 40 | 
COC(=O)c1ccc(CNC(=O)c2c(C)nc3ccccn23)cc1 [compound 25, Methyl 4-((2-methylimidazo[1,2-a]pyridine-3-carboxamido)methyl)benzoate] | < 40 | 
CCc1nc2ccc(Br)cn2c1C(=O)NCc1ccc(OC(F)(F)F)cc1 [compound 176, 6-Bromo-2-ethyl-N-(4-(trifluoromethoxy)benzyl)imidazo[1,2-a]pyridine-3-carboxamide] | 40 to 69 | 
CCc1nc2cc(Cl)ccn2c1C(=O)NCc1ccc(-c2ccc(F)cc2)cc1 [compound 56, 7-Chloro-2-ethyl-N-((4′-fluorobiphenyl-4-yl)methyl)imidazo[1,2-a]pyridine-3-carboxamide] | < 40 | 
CCOC(=O)C1CCN(c2ccc(CNC(=O)c3c(CC)nc4ccc(Cl)cn34)cc2)CC1 [compound 269, Ethyl1-(4-((6-chloro-2-ethylimidazo[1,2-a]pyridine-3-carboxamido)methyl)phenyl)piperidine-4-carboxylate] | 40 to 69 | 
Cc1nc2cc(-c3ccccc3)ccn2c1C(=O)NCc1ccccc1 [compound 22, N-Benzyl-2-methyl-7-phenylimidazo[1,2-a]pyridine-3-carboxamide] | 40 to 69 | 
CCc1nc2ccc(Cl)cn2c1C(=O)NCc1ccc(N2CCN(C)CC2)cc1 [compound 105, 6-Chloro-2-ethyl-N-(4-(4-methylpiperazin-1-yl)benzyl)imidazo[1,2-a]pyridine-3-carboxamide] | < 40 | 

SMILES | inhibition at 10 µM [%] | IC50 [nM]
CCc1nc2ccc(Cl)cn2c1CNCCc1ccncc1 [compound 344, N-((6-chloro-2-ethylimidazo[1,2-a]pyridin-3-yl)methyl)-2-(pyridin-4-yl)ethanamine] | < 40 | 
CCc1nc2ccc(Cl)cn2c1C(=O)NCc1ccc(N2CCN(c3ccc(F)cc3)CC2)cc1 [compound 148, 6-Chloro-2-ethyl-N-(4-(4-(4-fluorophenyl)piperazin-1-yl)benzyl)imidazo[1,2-a]pyridine-3-carboxamide] | 40 to 69 | 1000 to 20000
CCc1nc2cc(OC)ccn2c1C(=O)NCc1ccc(N2CCOCC2)cc1 [compound 261, 2-Ethyl-7-methoxy-N-(4-morpholinobenzyl)imidazo[1,2-a]pyridine-3-carboxamide] | < 40 | 
CCc1nc2ccc(Cl)cn2c1C(=O)NCc1ccc(-c2ccc(Cl)cc2C(F)(F)F)cc1 [compound 100, 6-Chloro-N-((4′-chloro-2′-(trifluoromethyl)biphenyl-4-yl)methyl)-2-ethylimidazo[1,2-a]pyridine-3-carboxamide] | > 69 | 1000 to 20000
CCc1nc2cc(Cl)c(Cl)cn2c1C(=O)NCc1ccc(N2CCN(c3ccc(F)cc3)CC2)cc1 [compound 180, 6,7-Dichloro-2-ethyl-N-(4-(4-(4-fluorophenyl)piperazin-1-yl)benzyl)imidazo[1,2-a]pyridine-3-carboxamide] | < 40 | 
CCc1nc2ccc(Cl)cn2c1C(=O)NCc1ccc(Nc2ccc(OC(F)(F)F)cc2)cc1 [compound 174, 6-Chloro-2-ethyl-N-(4-(4-(trifluoromethoxy)phenylamino)benzyl)imidazo[1,2-a]pyridine-3-carboxamide] | > 69 | 1000 to 20000
CCc1nc2ccc(Cl)cn2c1CNCc1ccc(N2CCN(c3ccc(F)cc3)CC2)cc1 [compound 381, 1-(6-chloro-2-ethylimidazo[1,2-a]pyridin-3-yl)-N-(4-(4-(4-fluorophenyl)piperazin-1-yl)benzyl)methanamine] |  | 1000 to 20000
CCc1nc2ccc(F)cn2c1C(=O)NCc1ccc(N2CCOCC2)cc1 [compound 241, 2-Ethyl-6-fluoro-N-(4-morpholinobenzyl)imidazo[1,2-a]pyridine-3-carboxamide] | < 40 | 
CCc1nc2ccc(Cl)cn2c1C(=O)N1CCC(OCc2ccc(F)cc2)CC1 [compound 333, (6-chloro-2-ethylimidazo[1,2-a]pyridin-3-yl)(4-((4-fluorobenzyl)oxy)piperidin-1-yl)methanone] | < 40 | 
CCc1nc2cc(Cl)ccn2c1C(=O)NCc1ccc(N2CCCCC2)cc1 [compound 89, 7-Chloro-2-ethyl-N-(4-(piperidin-1-yl)benzyl)imidazo[1,2-a]pyridine-3-carboxamide] | < 40 | 
CCc1nc2ccc(Cl)cn2c1C(=O)NCc1ccc(N2CCN(C(=O)c3ccc(F)cc3)CC2)cc1 [compound 319, 6-chloro-2-ethyl-N-(4-(4-(4-fluorobenzoyl)piperazin-1-yl)benzyl)imidazo[1,2-a]pyridine-3-carboxamide] | < 40 | 
Cc1nc2ccc(F)cn2c1C(=O)NCc1ccccc1 [compound 40, N-Benzyl-6-fluoro-2-methylimidazo[1,2-a]pyridine-3-carboxamide] | < 40 | 
CCc1nc2c(-c3ccncc3)cccn2c1C(=O)NCc1ccc(N2CCN(c3ccc(F)cc3)CC2)cc1 [compound 283, 2-Ethyl-N-(4-(4-(4-fluorophenyl)piperazin-1-yl)benzyl)-8-(pyridin-4-yl)imidazo[1,2-a]pyridine-3-carboxamide] | < 40 | 
CCc1nc2ccc(Cl)cn2c1C(=O)N1CCC(OCc2ccc(C(F)(F)F)cc2)CC1 [compound 334, (6-chloro-2-ethylimidazo[1,2-a]pyridin-3-yl)(4-((4-(trifluoromethyl)benzyl)oxy)piperidin-1-yl)methanone] | < 40 | 
CCc1nc2ccc(Cl)cn2c1CNCc1ccc(N2CCC3(CC2)OCCO3)cc1 [compound 346, N-(4-(1,4-dioxa-8-azaspiro[4.5]decan-8-yl)benzyl)-1-(6-chloro-2-ethylimidazo[1,2-a]pyridin-3-yl)methanamine] | < 40 | 
CCc1nc2ccc(Cl)cn2c1C(=O)NCc1ccc(N2CCOCC2)cc1 [compound 64] | < 40 | 
Cc1nc2c(Cl)cccn2c1C(=O)NCc1ccccc1 [compound 15, N-Benzyl-8-chloro-2-methylimidazo[1,2-a]pyridine-3-carboxamide] | < 40 | 
CCc1nc2cc(OC)ccn2c1C(=O)NCc1ccc(OC(F)(F)F)cc1 [compound 118, 2-Ethyl-7-methoxy-N-(4-(trifluoromethoxy)benzyl)imidazo[1,2-a]pyridine-3-carboxamide] | < 40 | 
